Values quoted from earlier work, collected in patent US8609693B2, “Methods of administration of thrombopoietin agonist compounds” (GlaxoSmithKline LLC, priority 2009, dated 2013).

Tested on: platelet counts
Conditions: 50 mg, 75 mg and 100 mg dose; patients receiving carboplatin/paclitaxel

Q: With CC1=NN(c2ccc(C)c(C)c2)C(=O)/C1=N\Nc1cccc(-c2cccc(C(=O)O)c2)c1O [Compound B, 3′-[(2Z)-[1-(3,4-dimethylphenyl)-1,5-dihydro-3-methyl-5-oxo-4H-pyrazol-4-ylidene]hydrazino]-2′-hydroxy-[1,1′-biphenyl]-3-carboxylic acid] as the molecule, how does the “target platelet improvement counts” value read?
A: Its value is “not meet the target platelet improvement counts”.
